Data as given in patent US20220002314A1 (priority 2018, published 2022).

What was measured:
[1] = molecular target: Human α2δ-1 subunit of Cav2.2 calcium channel (Homo sapiens, UniProt P54289); assay: biochemical; format: binding
Human μ-opioid receptor = Human μ-opioid receptor (Homo sapiens, UniProt P35372); assay: biochemical; format: binding
Chain of Human μ-opioid receptor (P35372 whole entry): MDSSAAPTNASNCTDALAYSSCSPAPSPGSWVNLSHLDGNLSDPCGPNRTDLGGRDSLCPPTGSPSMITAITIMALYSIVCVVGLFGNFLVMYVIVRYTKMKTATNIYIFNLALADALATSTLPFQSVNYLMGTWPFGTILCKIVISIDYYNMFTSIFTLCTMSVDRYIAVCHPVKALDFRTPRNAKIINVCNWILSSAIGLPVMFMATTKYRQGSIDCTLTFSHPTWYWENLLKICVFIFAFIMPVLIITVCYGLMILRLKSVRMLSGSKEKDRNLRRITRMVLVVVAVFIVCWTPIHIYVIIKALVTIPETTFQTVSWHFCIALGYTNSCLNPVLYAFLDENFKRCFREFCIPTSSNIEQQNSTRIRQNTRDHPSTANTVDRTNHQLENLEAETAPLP

Chain of Human α2δ-1 subunit of Cav2.2 calcium channel (P54289 25-1103): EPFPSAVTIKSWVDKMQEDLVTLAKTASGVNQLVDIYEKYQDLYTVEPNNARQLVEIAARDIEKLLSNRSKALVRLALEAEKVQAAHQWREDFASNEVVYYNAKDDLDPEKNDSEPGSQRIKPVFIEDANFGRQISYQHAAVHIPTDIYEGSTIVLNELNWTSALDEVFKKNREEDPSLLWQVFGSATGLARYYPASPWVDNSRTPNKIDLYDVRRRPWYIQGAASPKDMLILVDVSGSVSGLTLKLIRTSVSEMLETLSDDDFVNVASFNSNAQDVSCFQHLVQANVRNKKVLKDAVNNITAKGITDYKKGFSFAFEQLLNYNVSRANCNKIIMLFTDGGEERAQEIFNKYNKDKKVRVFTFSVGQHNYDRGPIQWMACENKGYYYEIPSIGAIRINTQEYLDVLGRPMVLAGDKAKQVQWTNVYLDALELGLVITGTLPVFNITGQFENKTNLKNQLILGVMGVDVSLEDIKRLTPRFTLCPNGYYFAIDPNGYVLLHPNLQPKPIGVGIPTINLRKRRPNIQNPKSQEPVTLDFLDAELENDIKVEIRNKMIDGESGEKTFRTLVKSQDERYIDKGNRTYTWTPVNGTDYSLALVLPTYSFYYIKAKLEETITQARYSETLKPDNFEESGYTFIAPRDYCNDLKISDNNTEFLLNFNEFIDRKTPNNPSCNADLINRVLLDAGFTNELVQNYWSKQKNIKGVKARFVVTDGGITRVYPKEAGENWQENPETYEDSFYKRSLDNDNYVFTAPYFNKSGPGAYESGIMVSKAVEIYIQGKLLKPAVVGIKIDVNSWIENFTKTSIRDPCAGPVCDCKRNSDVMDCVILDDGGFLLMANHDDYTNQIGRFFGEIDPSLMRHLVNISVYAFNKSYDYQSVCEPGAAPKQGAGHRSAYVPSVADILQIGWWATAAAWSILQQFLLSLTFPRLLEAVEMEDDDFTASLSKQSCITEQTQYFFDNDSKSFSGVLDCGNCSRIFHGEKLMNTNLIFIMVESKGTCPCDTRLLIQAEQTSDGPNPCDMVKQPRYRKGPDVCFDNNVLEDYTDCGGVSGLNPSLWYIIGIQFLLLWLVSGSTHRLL

Row | Structure (SMILES) | Ki [1] [µM] | Ki (Human μ-opioid receptor) [µM]
1 | CCC[C@H](c1nc2ccc(Cl)cc2c(=O)n1CC)N1CCN[C@H](CF)C1 [Example 229, 6-Chloro-3-ethyl-2-((R)-1-((S)-3-(fluoromethyl)piperazin-1-yl)butyl)quinazolin-4(3H)-one] | < 0.5 | > 0.5
2 | CCC[C@H](c1nc2ccc(Cl)cc2c(=O)n1CC)N1CCN[C@@H](CF)C1 [Example 230, 6-chloro-3-ethyl-2-((R)-1-((R)-3-(fluoromethyl)piperazin-1-yl)butyl)quinazolin-4(3H)-one] | 0.5 to 5 | > 0.5
3 | CCC[C@@H](c1nc2ccc(Cl)cc2c(=O)n1CC)N1CCN[C@@H](CF)C1 [Example 231, 6-chloro-3-ethyl-2-((S)-1-((R)-3-(fluoromethyl)piperazin-1-yl)butyl)quinazolin-4(3H)-one] | > 5 | > 0.5
4 | CCC[C@@H](c1nc2ccc(Cl)cc2c(=O)n1CC)N1CCN[C@H](CF)C1 [Example 232, 6-chloro-3-ethyl-2-((S)-1-((S)-3-(fluoromethyl)piperazin-1-yl)butyl)quinazolin-4(3H)-one] | > 5 | > 0.5
5 | CCC[C@H](c1nc2cnc(C(F)(F)F)cc2c(=O)n1CC)N1CCN[C@H](C)C1 [Example 233, 3-Ethyl-2-((R)-1-((R)-3-methylpiperazin-1-yl)butyl)-6-(trifluoromethyl)pyrido[3,4-d]pyrimidin-4(3H)-one] | < 0.5 | > 0.5
6 | CCC[C@H](c1nc2cnc(C(F)(F)F)cc2c(=O)n1CC)N1CCN[C@@H](C)C1 [Example 234, 3-ethyl-2-((R)-1-((S)-3-methylpiperazin-1-yl)butyl)-6-(trifluoromethyl)pyrido[3,4-d]pyrimidin-4(3H)-one] | < 0.5 | > 0.5
7 | CCC[C@@H](c1nc2cnc(C(F)(F)F)cc2c(=O)n1CC)N1CCN[C@@H](C)C1 [Example 235, 3-ethyl-2-((S)-1-((S)-3-methylpiperazin-1-yl)butyl)-6-(trifluoromethyl)pyrido[3,4-d]pyrimidin-4(3H)-one] | > 5 | > 0.5
8 | CCC[C@H](c1nc2ccc(C(NC)c3ccccc3)cc2c(=O)n1CC)N1C[C@@H](C)N[C@@H](C)C1 (stereo partly drawn) [Example 236, 2-((R)-1-((3S,5R)-3,5-Dimethylpiperazin-1-yl)butyl)-3-ethyl-6-((methylamino)(phenyl)methyl)quinazolin-4(3H)-one] | < 0.5 | > 0.5
